Results taken from patent US9758472B2, “Non-lactone carbocyclic and heterocyclic antagonists and agonists of bacterial quorum sensing” (WISCONSIN ALUMNI RESEARCH FOUNDATION, priority 2009, dated 2017).
Where two headings read alike, the source gives them in different places.

Key:
LasR [1] = target: T1, LasR (Pseudomonas aeruginosa, UniProt P25084); assay: LasR agonism assay, P. aeruginosa PA01 MW1 (pUM15) YFP reporter strain; type: cell-based; details: for Act %: thiolactone libraries, P. aeruginosa, synthetic ligands tested at 10 μM
T1 construct: expressed in transfected cells; host or cells: Escherichia coli DH5α (pJN105L+pSC11)
Experimental: (§1) The black bars are DH5α (pJN105L+pSC11) and the grey bars are PA01 MW1 (pUM15). Agonism positive control=activity of the reporter strain at full turn on for the strain. […] Negative control (Neg)=bacteria in the absence of natural and synthetic ligand. Error bars=standard deviation of the mean of triplicate samples.
(§2) The initial library was tested for LasR agonistic and antagonistic activity in two strains: Escherichia coli DH5α (pJN105L+pSC11) [Lee, J. H.; Lequette, Y.; Greenberg, E. P., Activity of purified QscR, a Pseudomonas aeruginosa orphan quorum-sensing transcription factor. Mol. Microbiol. 2006, 59 (2), 602-609] and P. aeruginosa PA01 MW1 (pUM15) [Muh, U.; Schuster, M.; Heim, R.; Singh, A.; Olson, E.; Greenberg, E. P., Novel Pseudomonas aeruginosa Quorum-Sensing Inhibitors Identified in an Ultra-High-Throughput Screen. Antimicrob. Agents Chemother. 2006, 50, 3674-3679] (FIGS. 5A and 5B). Both strains allow for synthetic autoinducer mimic evaluation and contain a reporter gene that allows for a quantitative readout of QS activity. DH5α (pJN105L+pSC11) is a heterologous β-galactosidase E. coli reporter strain containing a plasmid for the P. aeruginosa LasR gene. The PA01 MW1 (pUM15) strain uses the natural P. aeruginosa background containing a LasI deletion and the gene for yellow fluorescent protein (YFP) under the control of the LasI promoter to evaluate the LasI/R activity. Since the PA01 MW1 (pUM15) strain evaluates LasR in the natural P. aeruginosa background, in contrast to the heterologous E. coli strain, an improved idea of the interplay between the isolated LasI/R system and the combination of LasI/R with other QS subsystems such as QscR can be determined. Furthermore, additional nuances of the natural system such as compound permeability are incorporated in assays using the PA01 MW1 (pUM15) strain.

TraR [2] = target: T2, TraR (Agrobacterium tumefaciens, UniProt P33905); assay: cell-based; type: cell-based; set-up: and Agrobacterium tumefaciens WCF (pCF372); endogenous in cells; host or cells: Agrobacterium tumefaciens WCF (pCF372)
Experimental: (§3) The initial library was also tested in Vibrio fischeri ESI 114 (Δ-LuxI) [Lupp, C.; Urbanowski, M.; Greenberg, E. P.; Ruby, E. G., The Vibrio fischeri quorum-sensing systems ain and lux sequentially induce luminescence gene expression and are important for persistence in the squid host. Mol. Microbiol. 2003, 50 (1), 319-331] and Agrobacterium tumefaciens WCF (pCF372). […] J. Bacteriol. 1998, 180 (20), 5398-5405.] […] [Geske, G. D.; O'Neill, J. C.; Miller, D. M.; Mattmann, M. E.; Blackwell, H. E., Modulation of Bacterial Quorum Sensing: Systematic Evaluation of N-Acylated Homoserine Lactones in Multiple Species and New Insights into Their Mechanism of Action. J. Am. Chem. Soc. 2007, 129, 13613-13625.]

LasR [3] = target: T1, LasR; assay: LasR agonism assay, E. coli DH5α (pJN105L+pSC11) β-galactosidase reporter strain; type: cell-based, P. aeruginosa; details: for Act %: thiolactone libraries, E. coli, synthetic ligands tested at 10 μM
Experimental: as §1, §2

[4] = Functional half-life of autoinducers: ligand pre-incubated in media, then PA01 MW1 (pUM15) agonism readout; type: cell-based, P. aeruginosa; details: ligand incubated in media with antibiotics at 37° C.; pseudo first order, t1/2=ln(2)/slope
Experimental: [Glansdorp, F. G.; Thomas, G. L.; Lee, J. K.; Dutton, J. M.; Salmond, G. P. C.; Welch, M.; Spring, D. R., Synthesis and stability of small molecule probes for Pseudomonas aeruginosa quorum sensing modulation. Org. Biomol. Chem. 2004, 2, 3329-3336.] […] In these cases the results were determined by NMR experiments conducted in deuterated buffers. […] Unfortunately, the use of high levels of DMSO reduces the biological relevance of the assay because large concentrations of DMSO cannot be tolerated by biological systems. Furthermore, the required concentrations of ligand are lower in a biologically based functional assay than in an NMR experiment because YFP production is much more sensitive than NMR, which requires relatively high concentrations.
In this assay, media, ligand, and antibiotics are prepared in Teflon-capped vials and allowed to incubate at 37° C. for predetermined times. P. aeruginosa cells from the strain PA01 MW1 (pUM15) were cultured overnight. These cells were then pelleted and washed with LB containing 50 mM MOPS. […] The 96 well plate was incubated for 8 hours and then analyzed for optical density and YFP fluorescence. […] Fluorescence was normalized to cell density and time points were analyzed as a percentage of the ability of the freshly prepared natural ligand to agonize the P. aeruginosa system. […]

LasR [5] = target: T1, LasR; assay: LasR antagonism assay, E. coli DH5α (pJN105L+pSC11) β-galactosidase reporter strain; type: cell-based, P. aeruginosa
Experimental: (§4) FIG. 5B is a bar graph showing the results of […] assay for initial heterocyclic and carbocyclic library (Scheme 1) shown as a percent of the positive control. Antagonism positive control (Pos)=activity of the reporter strain in the absence of synthetic ligand at the EC50 value for the strain. […] Negative control (Neg)=bacteria in the absence of natural and synthetic ligand. Error bars=standard deviation of the mean of triplicate samples.
as §2

LuxR [6] = target: T3, LuxR (Aliivibrio fischeri, UniProt P35327); assay: cell-based; type: cell-based, Vibrio fischeri; set-up: The initial library was also tested in Vibrio fischeri ESI 114 (Δ-LuxI); endogenous in cells; host or cells: Vibrio fischeri ESI 114 (Δ-LuxI); details: for IC50: dose response
Experimental: as §3

LuxR [7] = target: T3, LuxR; details: initial library (FIG. 4); V. fischeri ESI 114 (Δ-LuxI)
Experimental: as §3

LasR [8] = target: T1, LasR; assay: LasR antagonism assay, P. aeruginosa PA01 MW1 (pUM15) YFP reporter strain; type: cell-based; details: initial library (FIG. 4); P. aeruginosa PA01 MW1; negative values indicate agonist properties
Experimental: as §4, §2

TraR [9] = target: T2, TraR; details: dose response; A. tumefaciens WCF (pCF372)
Experimental: as §3

LasR [10] = target: T1, LasR; assay: LasR antagonism assay, E. coli DH5α (pJN105L+pSC11) β-galactosidase reporter strain; type: cell-based, P. aeruginosa; details: thiolactone libraries, synthetic ligands tested at 10 μM
[11] = cited from earlier work

T3 sequence (P35327 whole entry): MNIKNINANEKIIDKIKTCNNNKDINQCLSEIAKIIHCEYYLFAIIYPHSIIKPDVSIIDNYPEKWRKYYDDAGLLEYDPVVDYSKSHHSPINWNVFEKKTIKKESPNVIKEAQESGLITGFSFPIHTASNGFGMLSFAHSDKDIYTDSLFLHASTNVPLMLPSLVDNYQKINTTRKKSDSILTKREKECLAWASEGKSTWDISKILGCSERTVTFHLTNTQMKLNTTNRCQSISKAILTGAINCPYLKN
T1 sequence (P25084 whole entry): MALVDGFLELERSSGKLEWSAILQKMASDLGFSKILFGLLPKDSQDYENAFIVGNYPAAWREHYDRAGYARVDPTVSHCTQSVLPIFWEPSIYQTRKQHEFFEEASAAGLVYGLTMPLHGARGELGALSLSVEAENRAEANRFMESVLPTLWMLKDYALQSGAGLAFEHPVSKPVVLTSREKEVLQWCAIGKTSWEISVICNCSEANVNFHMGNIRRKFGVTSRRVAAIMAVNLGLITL
T2 sequence (P33905 whole entry): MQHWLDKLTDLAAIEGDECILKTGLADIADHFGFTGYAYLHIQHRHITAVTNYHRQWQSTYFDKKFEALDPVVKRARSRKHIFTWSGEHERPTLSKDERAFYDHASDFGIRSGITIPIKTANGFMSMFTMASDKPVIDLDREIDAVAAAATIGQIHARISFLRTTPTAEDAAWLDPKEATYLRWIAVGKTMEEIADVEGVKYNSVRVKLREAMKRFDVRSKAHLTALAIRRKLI

Structure (SMILES): CCCCCCCCCC(=O)CC(=O)N[C@H]1CCSC1=O [Compound 1E]
- EC50 (LasR [1]; dose response, P. aeruginosa PA01 MW1 (pUM15)): 3200 nM
- Act % (LasR [1]): 127%
- IC50 (TraR [2]; dose response, A. tumefaciens WCF (pCF372)): 1800 nM
- inhibition at 10 µM (TraR [2]; read-out: Inhib %): 51%
- LasR agonism, in words (LasR [3]; E. coli DH5α (pJN105L+pSC11)): strong agonists
- EC50 (LasR [3]; dose response, E. coli DH5α (pJN105L+pSC11)): 92 nM
- Act % (LasR [3]): 102%
- half-life [4]: 82.3 h
- inhibition at 10 µM (LasR [5]; read-out: Inhib %): -61%
- IC50 (LuxR [6]; V. fischeri ESI 114 (Δ-LuxI)): 450 nM
- inhibition at 10 µM (LuxR [6]; read-out: Inhib %): 91%

Structure (SMILES): CCCCCCCCCC(=O)CC(=O)NCc1cccc([N+](=O)[O-])c1 [Compound 13]
- Agonist, percent of activation compared to the positive control (LuxR [7]): 1.7%
- Antagonist, percent inhibition compared to a positive control (LasR [5]; initial library (FIG. 4), E. coli DH5α (pJN105L+pSC11), negative values indicate agonist properties): 41.0%
- Antagonist, percent inhibition compared to a positive control (LasR [8]): 16.8%
- Antagonist, percent inhibition compared to a positive control (LuxR [6]; initial library (FIG. 4), V. fischeri ESI 114 (Δ-LuxI)): 43.8%

Structure (SMILES): CCCCCC(=O)CC(=O)N[C@H]1CCSC1=O [Compound 24E]
- Act % (LasR [1]): 3%
- EC50 (TraR [9]): 20000 nM
- Inhib % (TraR [2]; thiolactone libraries, A. tumefaciens, synthetic ligands tested at 10 μM): −89%
- Act % (LasR [3]): 0%
- Inhib % (LasR [10]): −30%
- IC50 (LuxR [6]; V. fischeri ESI 114 (Δ-LuxI)): 350 nM
- Inhib % (LuxR [6]; thiolactone libraries, V. fischeri, synthetic ligands tested at 10 μM): 99%

Structure (SMILES): CCCCCCCCCC(=O)CC(=O)N[C@H]1CCOC1=O [OdDHL, 3-oxo-dodecanoyal homoserine lactone]
- hydrolysis half-life ([11]; previous experiments, NMR in deuterated buffers, 50% solution of DMSO): approximately two
- racemization of the chiral center ([11]; previous experiments, over the course of a week): less than 5%
- half-life ([11]; previous literature, growth media at 37° C.): approximately two
- half-life [4]: 48.2 h
